Test results: patent US11925653B2, “Combination therapy effective against microorganisms, including drug resistant microorganisms” (Fleurir ABX LLC, priority 2021, dated 2024)
Marks after values point to notes of the source that are not given here.

How the values were obtained:
Escherichia coli [1] = experiment: MIC and synergy checkerboard assay, broth microdilution; assay type: cell-based
Protocol: (§1) The described novel combination was tested against both reference, and clinically resistant strains of S. aureus, E, coli, K. pneumoniae, and P. aeruginosa. Reference and clinical isolates were obtained from the American Type Culture Collection (ATCC, Manasas, VA.) and International Health Management Associates, Inc. (Schaumberg, IL). Bacteria were cultured in trypticase soy broth, concentrated 10-fold by centrifugation, and cryopreserved in the same medium containing 20% glycerol by holding at −80° C. Every two weeks a small amount of frozen culture was removed aseptically, and streaked on fresh trypticase soy agar plates to act as a working inoculum. Following overnight growth at about 37° C., the plates were wrapped in parafilm, and held at about 4° C. Bacteria (4-5 colonies) were then aseptically transferred into broth growth medium for assays as needed.
(§2) Minimum inhibitory concentration (MIC) assays were performed in a manner as described for the CLSI Agar dilution or broth microdilution assay guideline (see, Clinical Laboratory Standards Institute, 2009, Methods for Dilution Antimicrobial Susceptibility Tests for Bacteria That Grow Aerobically; Approved Standard, Eighth Edition, M07-A8, Vol. 29, No. 2). For example, known antibiotics or the compositions described herein were dissolved, serially diluted, and then added to tempered molten Mueller-Hinton Agar before pouring of plates; or were dissolved, and then serially diluted in 100 μL cation-adjusted Mueller-Hinton broth across the assay plate in the classical 2-fold geometric format. D-glucose-6-phosphate was included as a medium supplement in both agar, and broth at a concentration of 50 mg/L. Antibiotic concentrations for agar assay were at the final concentration. Antibiotic concentrations for broth microdilution in each well at this point were double what the final assay concentration would be. Bacterial inocula were prepared by swabbing several colonies from a fresh agar plate, and re-suspending the bacteria to a density that was the 0.5 McFarland turbidity standard, considered close or equivalent to 1×10^8 CFU/mL. For agar dilution, a steers replicator was utilized to deliver 1×10^4 CFU/spot. For broth microdilution, the bacterial inocula were diluted in the cation-adjusted Mueller-Hinton broth to 1×10^6 CFU/mL, and 100 μL was overlayered onto the wells containing a diluted antibiotic or a composition described. Following incubation as per the guideline, results were recorded as growth or no growth, and the lowest concentration of the antibiotic or the composition described where no growth was observed was declared the MIC.
(§3) To assay for synergy of antibacterial combinations, a recognized synergy checkerboard assay, adapted from the CLSI guideline microdilution assay, was utilized (see Eliopoulos, G. M., and Moellering, R. C, Jr., 1996. Antimicrobial Combinations, pg. 330-396. In: Lorian, V. (Ed.), Antibiotics in Laboratory Medicine, 4th Ed., Williams & Wilkins; Baltimore, MD). In the case of the agar dilution method, each antibiotic alone, or in combination was added to agar prior to plate pouring. For broth microdilution, the first compound (or antibiotic or agent) was diluted in cation-adjusted Mueller-Hinton broth across the plate along the horizontal axis with each well in a row containing 50 μL of an identical concentration of compound (or antibiotic). Along the vertical axis a dilution series of the second compound (or antibiotic) was dispensed. At this point the drug concentrations are four-fold of the final desired working concentration. […] Following incubation, wells with no growth are noted. […] FIC=(MIC-A combination/MIC-A alone)+(MIC-B combination/MIC-B alone).
(§4) In the above, FIC: Synergy=FIC<0.5; Additive=FIC>0.5-1; Indifferent=FIC>1-2; Antagonism=FIC>2-4.

K. pneumoniae = experiment: as above; assay type: cell-based
Protocol: as §1, §2, §3, §4

Pseudomonas aeruginosa = experiment: as above; assay type: cell-based
Protocol: as §1, §2, §3, §4

Escherichia coli [2] = experiment: MIC and synergy checkerboard assay, agar dilution; assay type: cell-based
Protocol: as §1, §2, §3, §4

K. pneumonia = experiment: MIC and synergy checkerboard assay, agar dilution; assay type: cell-based
Protocol: as §1, §2, §3, §4

P. aeruginosa = experiment: MIC and synergy checkerboard assay, agar dilution; assay type: cell-based
Protocol: as §1, §2, §3, §4

S. saprophyticus = experiment: MIC and synergy checkerboard assay, broth microdilution (uUTI species); assay type: cell-based, Staphylococcus saprophyticus
Protocol: as §2, with “MIC. […]” for “MIC.”

[3] = representative pharmacokinetic parameters; assay type: in vivo
From the text: The therapeutically effective amount may be modified by pharmacokinetic, and pharmacodynamic analysis as is understood in the field. In some embodiments, the novel composition may be provided prophylactically or preventatively or protectively, which may, in some instances, be at or below a therapeutically effective amount.

E. faecalis = details: cited from earlier work

## C[C@@H]1O[C@@H]1P(=O)(O)O [Fosfomycin, cis-1,2-epoxypropyl phosphonic acid]
Escherichia coli [1]; Escherichia coli 846439
  MIC (Combo as F/DP/SM; second compound as DP/SM): 32 µg/mL
Escherichia coli [1]; Escherichia coli 846446
  MIC (Combo as F/DP/SM; second compound as DP/SM): 2 µg/mL
Escherichia coli [1]; Escherichia coli 846450
  MIC (Combo as F/DP/SM; second compound as DP/SM): 16 µg/mL
Escherichia coli [1]; Escherichia coli 857021
  MIC (Combo as F/DP/SM; second compound as DP/SM): 32 µg/mL
Escherichia coli [1]; Escherichia coli 863686
  MIC (Combo as F/DP/SM; second compound as DP/SM): 32 µg/mL
Escherichia coli [1]; Escherichia coli (854535)
  MIC (Combo as F/DP/SM; second compound as DP/SM): 64 µg/mL
Escherichia coli [1]; Escherichia coli (928017)
  MIC (Combo as F/DP/SM; second compound as DP/SM): 64 µg/mL
Escherichia coli [1]; Escherichia coli (ATCC 25922)
  MIC (Combo as F/DP/SM; second compound as DP/SM): 8 µg/mL
K. pneumoniae; K. pneumoniae 848788
  MIC (Combo as F/DP/SM; second compound as DP/SM): >64* μg/ml
K. pneumoniae; K. pneumoniae 857147
  MIC (Combo as F/DP/SM; second compound as DP/SM): 16 µg/mL
K. pneumoniae; K. pneumoniae 857187
  MIC (Combo as F/DP/SM; second compound as DP/SM): 64 µg/mL
K. pneumoniae; K. pneumoniae 868968
  MIC (Combo as F/DP/SM; second compound as DP/SM): >64* μg/ml
K. pneumoniae; K. pneumoniae 868972
  MIC (Combo as F/DP/SM; second compound as DP/SM): 64 µg/mL
K. pneumoniae; K. pneumoniae 869028
  MIC (Combo as F/DP/SM; second compound as DP/SM): >64* μg/ml
K. pneumoniae; K. pneumoniae 875638
  MIC (Combo as F/DP/SM; second compound as DP/SM): 32 µg/mL
K. pneumoniae; K. pneumoniae 892483
  MIC (Combo as F/DP/SM; second compound as DP/SM): >64* μg/ml
K. pneumoniae; K. pneumoniae 926439
  MIC (Combo as F/DP/SM; second compound as DP/SM): 64 µg/mL
Pseudomonas aeruginosa; P. aeruginosa 826882
  MIC (Combo as F/DP/SM; second compound as DP/SM): 64 µg/mL
Pseudomonas aeruginosa; P. aeruginosa 880238
  MIC (Combo as F/DP/SM; second compound as DP/SM): 64 µg/mL
Pseudomonas aeruginosa; P. aeruginosa 906939
  MIC (Combo as F/DP/SM; second compound as DP/SM): 64 µg/mL
Pseudomonas aeruginosa; P. aeruginosa 926474
  MIC (Combo as F/DP/SM; second compound as DP/SM): 32 µg/mL
Pseudomonas aeruginosa; P. aeruginosa 945543
  MIC (Combo as F/DP/SM; second compound as DP/SM): 32 µg/mL
Pseudomonas aeruginosa; P. aeruginosa 945545
  MIC (Combo as F/DP/SM; second compound as DP/SM): 64 µg/mL
Pseudomonas aeruginosa; P. aeruginosa 945748
  MIC (Combo as F/DP/SM; second compound as DP/SM): 64 µg/mL
Pseudomonas aeruginosa; Pseudomonas aeruginosa (924190)
  MIC (Combo as F/DP/SM; second compound as DP/SM): 256* μg/ml
Pseudomonas aeruginosa; Pseudomonas aeruginosa (985543)
  MIC (Combo as F/DP/SM; second compound as DP/SM): 128* μg/ml
Escherichia coli [2]; Escherichia coli 846439
  MIC (Combo as F/DP/SM; second compound as DP/SM): 64 µg/mL
Escherichia coli [2]; Escherichia coli 846446
  MIC (Combo as F/DP/SM; second compound as DP/SM): 4 µg/mL
Escherichia coli [2]; Escherichia coli 846450
  MIC (Combo as F/DP/SM; second compound as DP/SM): 32 µg/mL
Escherichia coli [2]; Escherichia coli 846455
  MIC (Combo as F/DP/SM; second compound as DP/SM): 128* μg/ml
Escherichia coli [2]; Escherichia coli 847149
  MIC (Combo as F/DP/SM; second compound as DP/SM): 128* μg/ml
Escherichia coli [2]; Escherichia coli 854535
  MIC (Combo as F/DP/SM; second compound as DP/SM): 128* μg/ml
Escherichia coli [2]; Escherichia coli 854566
  MIC (Combo as F/DP/SM; second compound as DP/SM): 128* μg/ml
Escherichia coli [2]; Escherichia coli 857021
  MIC (Combo as F/DP/SM; second compound as DP/SM): 64 µg/mL
Escherichia coli [2]; Escherichia coli 863078
  MIC (Combo as F/DP/SM; second compound as DP/SM): 128* μg/ml
Escherichia coli [2]; Escherichia coli 863686
  MIC (Combo as F/DP/SM; second compound as DP/SM): 64 µg/mL
Escherichia coli [2]; Escherichia coli ATCC 25922
  MIC (Combo as F/DP/SM; second compound as DP/SM): 16 µg/mL
K. pneumonia; K. pneumonia 848788
  MIC (Combo as F/DP/SM; second compound as DP/SM): 256* μg/ml
K. pneumonia; K. pneumonia 857147
  MIC (Combo as F/DP/SM; second compound as DP/SM): 32 µg/mL
K. pneumonia; K. pneumonia 857187
  MIC (Combo as F/DP/SM; second compound as DP/SM): 128* μg/ml
K. pneumonia; K. pneumonia 868968
  MIC (Combo as F/DP/SM; second compound as DP/SM): 256* μg/ml
K. pneumonia; K. pneumonia 868972
  MIC (Combo as F/DP/SM; second compound as DP/SM): 128* μg/ml
K. pneumonia; K. pneumonia 869028
  MIC (Combo as F/DP/SM; second compound as DP/SM): 256* μg/ml
K. pneumonia; K. pneumonia 870964
  MIC (Combo as F/DP/SM; second compound as DP/SM): 256* μg/ml
K. pneumonia; K. pneumonia 875638
  MIC (Combo as F/DP/SM; second compound as DP/SM): 64 µg/mL
K. pneumonia; K. pneumonia 892483
  MIC (Combo as F/DP/SM; second compound as DP/SM): 256* μg/ml
K. pneumonia; K. pneumonia 926439
  MIC (Combo as F/DP/SM; second compound as DP/SM): 128* μg/ml
P. aeruginosa; P. aeruginosa 826882
  MIC (Combo as F/DP/SM; second compound as DP/SM): 128* μg/ml
P. aeruginosa; P. aeruginosa 880238
  MIC (Combo as F/DP/SM; second compound as DP/SM): 128* μg/ml
P. aeruginosa; P. aeruginosa 889058
  MIC (Combo as F/DP/SM; second compound as DP/SM): 128* μg/ml
P. aeruginosa; P. aeruginosa 906939
  MIC (Combo as F/DP/SM; second compound as DP/SM): 128* μg/ml
P. aeruginosa; P. aeruginosa 914881
  MIC (Combo as F/DP/SM; second compound as DP/SM): 128* μg/ml
P. aeruginosa; P. aeruginosa 924190
  MIC (Combo as F/DP/SM; second compound as DP/SM): 256* μg/ml
P. aeruginosa; P. aeruginosa 926474
  MIC (Combo as F/DP/SM; second compound as DP/SM): 64 µg/mL
P. aeruginosa; P. aeruginosa 945543
  MIC (Combo as F/DP/SM; second compound as DP/SM): 128* μg/ml
P. aeruginosa; P. aeruginosa 945545
  MIC (Combo as F/DP/SM; second compound as DP/SM): 128* μg/ml
P. aeruginosa; P. aeruginosa 945748
  MIC (Combo as F/DP/SM; second compound as DP/SM): 128* μg/ml
P. aeruginosa; P. aeruginosa PAO1
  MIC (Combo as F/DP/SM; second compound as DP/SM): 32 µg/mL
S. saprophyticus; S. saprophyticus 1119421
  MIC (Combo as F/DP/SM; second compound as DP/SM): 32 µg/mL
S. saprophyticus; S. saprophyticus 1124324
  MIC (Combo as F/DP/SM; second compound as DP/SM): 32 µg/mL
S. saprophyticus; S. saprophyticus 1136894
  MIC (Combo as F/DP/SM; second compound as DP/SM): 64 µg/mL
[3]; Dose: Fosfomycin 3000 mg, trimethoprim 720 mg
  kel (elimination rate constant): 0.122 h⁻¹
[3]; in vivo, 3000 mg, read-out: T ½ (converted)
  half-life: 5.7 h
[3]; in vivo, read-out: Tmax
  Tmax: 2 h
E. faecalis
  MIC: 32 to 128 µg/mL
